According to the NIST ThermoML archive (doi:10.1021/je1002237):

Assay: xn = mol fraction of the nth substance listed
Conditions: 101 kPa, Liquid

CCOS(=O)(=O)[O-].CCn1cc[n+](C)c1 [1-ethyl-3-methylimidazolium ethyl sulfate] + CC(C)=O
mass density [kg/m3]
Conditions	278.15 K	283.15 K	288.15 K	293.15 K	298.15 K	303.15 K	308.15 K
x2 = 0	1251.04	1247.5	1244.04	1240.66	1237.27	1233.89	1230.51
x2 = 0.0048	1250.35	1246.8	1243.35	1239.97	1236.57	1233.18	1229.8
x2 = 0.0098	1249.71	1246.16	1242.72	1239.31	1235.93	1232.54	1229.15
x2 = 0.015	1248.99	1245.43	1242	1238.59	1235.2	1231.8	1228.41
x2 = 0.0249	1247.95	1244.39	1240.97	1237.55	1234.16	1230.76	1227.37
x2 = 0.0399	1245.49	1241.93	1238.51	1235.1	1231.67	1228.26	1224.86
x2 = 0.06	1242.52	1238.99	1235.56	1232.12	1228.69	1225.26	1221.85
x2 = 0.0799	1239.64	1236.15	1232.7	1229.24	1225.79	1222.35	1218.92
x2 = 0.1002	1236.48	1233.02	1229.54	1226.07	1222.61	1219.16	1215.71
x2 = 0.1501	1228.75	1225.24	1221.72	1218.21	1214.71	1211.21	1207.73
x2 = 0.2066	1218.26	1214.69	1211.11	1207.54	1204	1200.46	1196.93
x2 = 0.2998	1200.04	1196.37	1192.71	1189.06	1185.43	1181.81	1178.19
x2 = 0.3999	1176.43	1172.65	1168.88	1165.13	1161.39	1157.66	1153.94
x2 = 0.5	1146.24	1142.32	1138.42	1134.53	1130.65	1126.78	1122.92
x2 = 0.6	1109.44	1105.35	1101.27	1097.2	1093.15	1089.1	1085.07
x2 = 0.7	1062.54	1058.23	1053.92	1049.61	1045.32	1041.02	1036.74
x2 = 0.8	1001.65	997.03	992.4	987.78	983.15	978.52	973.88
x2 = 0.9003	920.34	915.32	910.28	905.21	900.15	895.06	889.95
x2 = 0.95	869.49	864.22	858.92	853.61	848.26	842.89	837.49
